Assay results from US10745428B2, “Antiviral phosphodiamide prodrugs of tenofovir” (Merck Sharp & Dohme Corp., priority 2015, dated 2020).
Where two headings read alike, the source gives them in different places.

Key:
[1] = test system: HIV-1 (H9/IIIB strain); assay: Multiple round HIV-1 infection assay (Viking assay), HIV-1 replication in MT4-GFP cells; format: cell-based; settings: MT4-GFP cells infected with HIV-1 H9/IIIB
Experimental: The antiviral activity of the tenofovir prodrugs of the Examples herein was assessed in an assay that measures the rate of replication of HIV in cell culture, termed the Viking assay (VIral KINetics in Green cells) and performed as follows. HIV-1 replication was monitored using MT4-gag-GFP clone D3 (hereafter designated MT4-GFP; GFP is green fluorescent protein), which are MT-4 cells modified to harbor a GFP reporter gene, the expression of which is dependent on the HIV-1 expressed proteins tat and rev; see Wang Y-J et al., 2010J Virological Methods 165:230-237. Productive infection of an MT4-GFP cell with HIV-1 results in GFP expression approximately 24 h post-infection. MT4-GFP cells were maintained at 37° C./5% CO2/90% relative humidity in RPMI 1640 supplemented with 10% fetal bovine serum, 100 U/ml penicillin/streptomycin, and 400 μg/ml G418 to maintain the reporter gene. For infections, MT4-GFP cells were placed in the same medium lacking G418 and infected overnight with HIV-1 (H9/IIIB strain) virus at an approximate multiplicity of infection of 0.01 in the same incubation conditions. Cells were then washed and re-suspended in either RPMI 1640 supplemented with 10% or 50% normal human serum (NHS) at 1.6×10^5 cells/mL (10% NHS or 50% NHS, respectively). Compound plates were prepared by dispensing compounds dissolved in DMSO into wells of 384 well poly-D-lysine-coated plates (0.2 μl/well) using an ECHO acoustic dispenser. Each compound was tested in a 10-point serial 3-fold dilution (typical final concentrations: 8.4 μM-0.42 nM). Controls included no inhibitor (DMSO only) and a combination of three antiviral agents (efavirenz, indinavir, and an integrase strand transfer inhibitor at final concentrations of 4 μM each). Cells were added (50 μL/well) to compound plates and the infected cells were maintained at 37′C/5% CO2/90% relative humidity.
Infected cells were quantified at two time points, ˜48 h and ˜72 h post-infection, by counting the number of green cells in each well using an Acumen eX3 scanner. The increase in the number of green cells over ˜24 h period gives the reproductive ratio, R0, which is typically 5-15 and has been shown experimentally to be in logarithmic phase (data not shown). R0 is calculated for each well, and IC50s determined by non-linear 4-parameter curve fitting.

[2] = Prodrug stability assay in bio-relevant media (FaSSIF with Pancreatin), GI Tract stability; format: in vitro ADME; settings: HPLC peak area of prodrug at 5 h divided by area at 0 h; 0.5 mg/mL Pancreatin in FaSSIF, 37° C.
Experimental: The following assay was employed to evaluate the stability of the prodrugs in simulated gastrointestinal tract conditions. Preparation of fasted state simulated intestinal fluid (FaSSIF) using Phares SIF Powder was carried out according to protocols from Phare Drug Delivery AG (Baselland, Switzerland). For sample preparation, 10 μL stock solutions (10 mM) of prodrug substance in DMSO was added to 990 μL of 0.5 mg/mL Pancreatin solution (Fisher CAS#8049-47-6) in FaSSIF. Two samples were prepared for each compound. If the sample was a clear solution, it was directly analyzed by HPLC. If the sample was not clear, the sample was diluted with 100% ACN, maintained at 37° C. and observed 5 h later. If the sample was clear, HPLC analysis was directly performed. If the sample was still not clear, the sample was diluted with 100% ACN and assayed by HPLC. All the samples were vortexed for 3 min and observed before injection. For the diluted samples, the area is multiplied by a factor when the data is analyzed. The analysis was carried out with an Agilent 1100 series HPLC with autosampler. The column was usually a Poroshell 120 EC-C18, 4.6×50 mm, 2.7 μm. The flow rate was 1.8 mL/min, and the injection volume was 5 or 10 μL. UV detection was in the range 210-400 nm. The mobile phase consisted of solvent A (water plus 10 mM tetrabutylammonium bromide) and solvent B (acetonitrile) with a gradient of 90% solvent A at 0 min, changing to 95% solvent B over 6 min, maintaining for 1.5 min, then reverting to 90% solvent A over 1.6 min. The HPLC peak area of the prodrug at 5 h was divided by the HPLC peak area of the prodrug at 0 h, to generate the % claimed parent ratio, which is summarized in Table 2. for GI Tract stability.

[3] = 10% normal human serum, read-out: Viking, IC50 (10% NHS)
[4] = 50% normal human serum, read-out: Viking, IC50 (50% NHS)
[5] = Human immunodeficiency virus 1, IIIB, 50% normal human serum, read-out: Viking, IC50 (50% NHS)
[6] = Human immunodeficiency virus 1, IIIB, 10% normal human serum, read-out: Viking, IC50 (10% NHS)

CC(C)OC(=O)C(C)(C)NP(=O)(CO[C@H](C)Cn1cnc2c(N)ncnc21)N[C@H](C)C(=O)OC1CCCC1 (single isomer, unassigned) [Example 1A]
IC50 [1, 3]: 19.3 nM | IC50 [1, 4]: 44.3 nM

CC(C)OC(=O)C(C)(C)NP(=O)(CO[C@H](C)Cn1cnc2c(N)ncnc21)N[C@H](C)C(=O)OC1CCCC1 (single isomer, unassigned) [Example 1B]
IC50 [1, 3]: 2.4 nM | IC50 [1, 4]: 6.2 nM | GI Tract stability [2]: 95.9%

CCCCOC(=O)[C@@H](C)NP(=O)(CO[C@H](C)Cn1cnc2c(N)ncnc21)NC(C)(C)C(=O)OC(C)C (single isomer, unassigned) [Example 3A]
IC50 [1, 3]: 20.7 nM | IC50 [1, 4]: 71.4 nM

CC(C)OC(=O)[C@@H](C)NP(=O)(CO[C@H](C)Cn1cnc2c(N)ncnc21)NC(C)(C)C(=O)OC(C)C (single isomer, unassigned) [Example 4A]
IC50 [1, 3]: 418 nM | IC50 [1, 4]: 1400 nM

CC(C)OC(=O)[C@@H](C)NP(=O)(CO[C@H](C)Cn1cnc2c(N)ncnc21)NC(C)(C)C(=O)OC(C)C (single isomer, unassigned) [Example 4B]
IC50 [1, 3]: 74.6 nM | IC50 [1, 4]: 122 nM

CC(C)COC(=O)[C@@H](C)NP(=O)(CO[C@H](C)Cn1cnc2c(N)ncnc21)NC(C)(C)C(=O)OC(C)C (single isomer, unassigned) [Example 5A]
IC50 [1, 3]: 33.1 nM | IC50 [1, 4]: 129 nM

CC(C)COC(=O)[C@@H](C)NP(=O)(CO[C@H](C)Cn1cnc2c(N)ncnc21)NC(C)(C)C(=O)OC(C)C (single isomer, unassigned) [Example 5B]
IC50 [1, 3]: 2.5 nM | IC50 [1, 4]: 6.4 nM

CC(C)OC(=O)C(C)(C)NP(=O)(CO[C@H](C)Cn1cnc2c(N)ncnc21)N[C@H](C)C(=O)OC1CCCCC1 (single isomer, unassigned) [Example 6A]
IC50 [1, 3]: 101 nM | IC50 [1, 4]: 500 nM

CC(C)OC(=O)C(C)(C)NP(=O)(CO[C@H](C)Cn1cnc2c(N)ncnc21)N[C@H](C)C(=O)OC1CCCCC1 (single isomer, unassigned) [Example 6B]
IC50 [1, 3]: 1.9 nM | IC50 [1, 4]: 5.6 nM

CCCCCCOC(=O)[C@@H](C)NP(=O)(CO[C@H](C)Cn1cnc2c(N)ncnc21)NC(C)(C)C(=O)OC(C)C (single isomer, unassigned) [Example 7A]
IC50 [1, 3]: 10.4 nM | IC50 [1, 4]: 57.8 nM

CCCCCCOC(=O)[C@@H](C)NP(=O)(CO[C@H](C)Cn1cnc2c(N)ncnc21)NC(C)(C)C(=O)OC(C)C (single isomer, unassigned) [Example 7B]
IC50 [1, 3]: 4.7 nM | IC50 [1, 4]: 28.8 nM

CCCCCOC(=O)[C@@H](C)NP(=O)(CO[C@H](C)Cn1cnc2c(N)ncnc21)NC(C)(C)C(=O)OC(C)C (single isomer, unassigned) [Example 8A]
IC50 [1, 5]: 41.4 nM | IC50 [1, 3]: 12.6 nM

CCCCCOC(=O)[C@@H](C)NP(=O)(CO[C@H](C)Cn1cnc2c(N)ncnc21)NC(C)(C)C(=O)OC(C)C (single isomer, unassigned) [Example 8B]
IC50 [1, 3]: 3.9 nM | IC50 [1, 4]: 20.7 nM

CCCCCCOC(=O)C(C)(C)NP(=O)(CO[C@H](C)Cn1cnc2c(N)ncnc21)N[C@H](C)C(=O)OCC(C)C (single isomer, unassigned) [Example 10A]
IC50 [1, 3]: 6.6 nM | IC50 [1, 4]: 72.5 nM

CCCCCCOC(=O)C(C)(C)NP(=O)(CO[C@H](C)Cn1cnc2c(N)ncnc21)N[C@H](C)C(=O)OCCCC (single isomer, unassigned) [Example 11A]
IC50 [1, 3]: 9.9 nM | IC50 [1, 4]: 99 nM

CCCCCCOC(=O)C(C)(C)NP(=O)(CO[C@H](C)Cn1cnc2c(N)ncnc21)N[C@H](C)C(=O)OCCCC (single isomer, unassigned) [Example 11B]
IC50 [1, 3]: 0.8 nM | IC50 [1, 4]: 2.6 nM

CCCCCCOC(=O)C(C)(C)NP(=O)(CO[C@H](C)Cn1cnc2c(N)ncnc21)N[C@H](C)C(=O)OCCCCC (single isomer, unassigned) [Example 12A]
IC50 [1, 3]: 7.3 nM | IC50 [1, 4]: 54.4 nM

CCCCCCOC(=O)C(C)(C)NP(=O)(CO[C@H](C)Cn1cnc2c(N)ncnc21)N[C@H](C)C(=O)OCCCCC (single isomer, unassigned) [Example 12B]
IC50 [1, 3]: 0.5 nM | IC50 [1, 4]: 3.3 nM

CCCCCCOC(=O)[C@@H](C)NP(=O)(CO[C@H](C)Cn1cnc2c(N)ncnc21)NC(C)(C)C(=O)OCCCCCC (single isomer, unassigned) [Example 13B]
GI Tract stability [2]: 83.8%

CCCCCCOC(=O)C(C)(C)NP(=O)(CO[C@H](C)Cn1cnc2c(N)ncnc21)N[C@H](C)C(=O)OC1CCCC1 (single isomer, unassigned) [Example 14A]
IC50 [1, 3]: 9.8 nM | IC50 [1, 4]: 67.2 nM

CCCCCCOC(=O)C(C)(C)NP(=O)(CO[C@H](C)Cn1cnc2c(N)ncnc21)N[C@H](C)C(=O)OC1CCCCC1 (single isomer, unassigned) [Example 15A]
IC50 [1, 3]: 7.7 nM | IC50 [1, 4]: 25.9 nM

CCCCCOC(=O)[C@@H](C)NP(=O)(CO[C@H](C)Cn1cnc2c(N)ncnc21)NC(C)(C)C(=O)OCCCCC (single isomer, unassigned) [Example 16A]
IC50 [1, 3]: 10 nM | IC50 [1, 4]: 60.1 nM

CC(C)OC(=O)C(C)(C)NP(=O)(CO[C@H](C)Cn1cnc2c(N)ncnc21)N[C@H](C)C(=O)OC1CCC1 (single isomer, unassigned) [Example 18A]
IC50 [1, 6]: 20 nM | IC50 [1, 5]: 34.2 nM

CCCCCOC(=O)C(C)(C)NP(=O)(CO[C@H](C)Cn1cnc2c(N)ncnc21)N[C@H](C)C(=O)OC1CCC1 (single isomer, unassigned) [Example 19A]
IC50 [1, 3]: 6.9 nM | IC50 [1, 4]: 27.4 nM

CCCCCCOC(=O)C(C)(C)NP(=O)(CO[C@H](C)Cn1cnc2c(N)ncnc21)N[C@H](C)C(=O)OC1CCC1 (single isomer, unassigned) [Example 21A]
IC50 [1, 3]: 4.4 nM | IC50 [1, 4]: 14.9 nM

CCCCCCOC(=O)C(C)(C)NP(=O)(CO[C@H](C)Cn1cnc2c(N)ncnc21)N[C@H](C)C(=O)OC1CCC1 (single isomer, unassigned) [Example 21B]
IC50 [1, 3]: 0.7 nM | IC50 [1, 4]: 2.8 nM

CCCCOC(=O)C(C)(C)NP(=O)(CO[C@H](C)Cn1cnc2c(N)ncnc21)N[C@H](C)C(=O)OC1CCC1 (single isomer, unassigned) [Example 23A]
IC50 [1, 6]: 6.7 nM | IC50 [1, 4]: 35.5 nM

CCCCCOC(=O)[C@H]1CCCN1P(=O)(CO[C@H](C)Cn1cnc2c(N)ncnc21)NC(C)(C)C(=O)OCCCCC (single isomer, unassigned) [Example 26A]
IC50 [1, 6]: 5.3 nM | IC50 [1, 4]: 50.3 nM

C[C@H](Cn1cnc2c(N)ncnc21)OCP(=O)(N[C@H](C)C(=O)OC1CCCC1)NC(C)(C)C(=O)OC1CCCCC1 (single isomer, unassigned) [Example 27A]
IC50 [1, 3]: 12.9 nM | IC50 [1, 4]: 64.5 nM

C[C@H](Cn1cnc2c(N)ncnc21)OCP(=O)(N[C@H](C)C(=O)OC1CCCC1)NC(C)(C)C(=O)OC1CCC1 (single isomer, unassigned) [Example 28A]
IC50 [1, 6]: 5.4 nM | IC50 [1, 4]: 16.1 nM
